≈ marks a conversion by molar mass, not a printed value.
Columns and labels:
[1] = tested on: EGFP-α-tubulin H2B-mCherry HeLa Kyoto cells; assay: HeLa cell toxicity, 12-hour confocal time-lapse imaging; format: cell-based, human; conditions: time-lapse imaging, concentration not given
Description: For phototoxicity experiments, confocal time-lapse imaging of HeLa Kyoto H2B-mCherry eGFP-α-tubulin cells for 12 hours was performed in DMEM further supplemented with 25 mM HEPES in order to achieve CO2 independent media. Confocal time-lapse imaging was performed on a Zeiss LSM 710 using a Plan Apo 20×/0.8 objective, with the following parameters: 2% laser intensity at λexc=488 nm, 3% laser intensity at λexc=543 nm, 1.2× zoom, average 4, line step 1, 1000×1000 pixels, 0.35 μm pixel size, 0.65 μs dwell time, 3 slice/z-stack with 7 μm between slices at every 10 minutes.
To test the cytotoxicity of neurelaxin-A in live-cell fluorescence microscopy, time-lapse EGFP-α-tubulin H2B-mCherry labeled HeLa Kyoto cells were imaged in a confocal microscope (FIG. 4a).
Cells were treated with 50 μM neurelaxin-A and imaged for 12 hours applying 3 z-sections every 10 minutes.

[2] = cited from earlier work; for solubility: Képiró et al., Angew. Chem. Int. Ed., 2014
[3] = tested on: myosin 2; conditions: Lucas-Lopez et al., 2008; cited from earlier work
[4] = tested on: cannabinoid-induced working memory loss; assay: Novel object recognition (NOR) test with CP55,940; format: in vivo; conditions: CP55,940 1 hour prior to familiarization, no neurelaxin-A
Description: In this experiment, a novel object recognition (NOR) test was performed.
In this test animals are presented to two objects and it will explore them for a while. After, one of the objects is changed for a new and different one. Under normal circumstances animals will be attracted to the novel object and will spend more time exploring it, by comparison to the older and already known object. Animals with memory deficit will explore both objects equally.
The synthetic cannabinoid CB1R agonist CP55,940 is administrated 1 hour prior to the familiarization step. Thirty minutes prior to the familiarization animals are either treated or not with neurelaxin-A.

Structure (SMILES): Cc1ccc2c(c1)C(=O)C1(O)CCN(c3ccccc3)C1=N2 (stereo not drawn) [Blebbistatin]
- cytotoxic phenotype in HeLa Kyoto cells (positive control) [1]: cells round up from the surface and eventually die
- solubility [2]: around 20 μM
- water solubility: concentration above which slow precipitation is observed ([2]; background statement): 10 µM (≈ 2.92 µg/mL)

Structure (SMILES): O=C1c2ccc([N+](=O)[O-])cc2N=C2N(c3ccccc3)CCC12O (stereo not drawn) [Nitroblebbistatin]
- IC50 [3]: 27.5 µM

Structure (SMILES): CCCCCCC(C)(C)c1ccc([C@@H]2C[C@H](O)CC[C@H]2CCCO)c(O)c1 [CP55,940, reference compound]
- NOR test: exploration of familiar and novel object [4]: spend similar time exploring both objects

Structure (SMILES): Cc1ccc2c(c1)C(=O)C1(O)CCN(c3ccc([N+](=O)[O-])cc3)C1=N2 (stereo not drawn) [Para-nitroblebbistatin]
- solubility [2]: around 20 μM

— patent US10858357B2, “Water-soluble myosin 2 inhibitors for the treatment of neurological, neuropathic or psychiatric diseases” (PARIS SCIENCES ET LETTRES-QUARTIER LATIN, priority 2016, dated 2020)
